Test results reported in patent US8685934B2, “Methods for treating extreme insulin resistance in patients resistant to previous treatment with other anti-diabetic drugs employing an SGLT2 inhibitor and compositions thereof” (Bristol-Myers Squibb Company, priority 2009, dated 2014).
Read-outs that look alike come from different tables or passages of the source.

Experiments:
[1] = system: highly insulin-resistant T2DM patients poorly controlled with insulin plus metformin and/or thiazolidinediones; details: for Adverse events, % of patients: placebo 65.2%; for Patients with genital tract infections: double-blind period, placebo one; for Events of pollakiuria, patients: placebo four patients; for Patients who reported episodes of hypoglycemia: placebo three patients
Source text: (§1) This was a randomized, single- and double-blind, three-arm parallel group, placebo-controlled trial to determine if dapagliflozin effectively lowers hyperglycemia in highly insulin-resistant T2DM patients poorly controlled with insulin plus metformin and/or thiazolidinediones. The trial consisted of a qualification period of 10 to 21 days, a treatment phase of 12 weeks, and a follow-up phase of 4 weeks. During qualification and until day 1, patients maintained their stable dose of open-label OADs, as well as their stable dose of prescribed insulin.
(§2) The treatment phase utilized an adaptive trial design with two cohorts: Cohort 1, the insulin dose-setting group; and Cohort 2, the main experimental group. The purpose of Cohort 1 was to determine the ideal starting dose of insulin least likely to cause hypoglycemia when dapagliflozin would be added. In Cohort 1, four patients were assigned to 20 mg single-blind dapagliflozin on day 1 after having their insulin dose decreased by 50%, the greatest decrement possible in this adaptive design. These patients underwent 48-hour continuous blood glucose monitoring (CGM) during the first week of treatment. Pursuant to the protocol, if at least one patient recorded a CGM value ≦100 mg/dL, confirmed by self-monitoring of blood glucose (SMBG), the total daily insulin dose for patients in Cohort 2 would be set at 50% of their usual dose that is, at an average of 52 to 54 units of insulin daily, and lesser dose reductions of insulin would not be tested. […] Patients in Cohort 2 were randomized on day 1 in a 1:1:1 ratio to double-blind placebo, 10 mg dapagliflozin or 20 mg dapagliflozin once daily, in addition to their open-label OAD(s) and 50% of their usual daily insulin, that is an average of 52 to 54 units of insulin daily.
Patients were scheduled for visits at weeks 1, 2, 4, 6, 8, 10, and 12 of treatment, and performed SMBG 5 times daily during the 3 to 5 days prior to visits. No dose modifications of blinded study medication or OAD(s) were allowed during the treatment phase. Guidelines were in place throughout the trial for managing hypo- and hyperglycemia. […] Additional down-titration could be implemented as clinically indicated to manage the risk of hypoglycemia.
(§3) Safety outcomes were assessed by treatment-emergent adverse events, vital signs, ECGs and laboratory measurements, including 24-hour urine collections for volume and electrolytes.

[2] = system: highly insulin-resistant T2DM patients poorly controlled with insulin plus metformin and/or thiazolidinediones; details: for 24-hour urinary glucose, increase / Standing diastolic blood pressure, mean change / Standing systolic blood pressure, mean change / Serum hematocrit, median increase from baseline / Urinary glucose excretion, mean change from baseline: week 12; for Glomerular filtration rate, change compared to baseline: end of treatment; for Urinary glucose excretion, mean change from baseline: placebo −1.5
Source text: as §1, §2, §3

[3] = system: highly insulin-resistant T2DM patients poorly controlled with insulin plus metformin and/or thiazolidinediones
Experimental: Criteria for management of hyperglycemia were determined by fasting plasma glucose (FPG) measurements. For any FPG level >240 mg/dL at weeks 4 and 6, >220 mg/dL at week 8, or >200 mg/dL at week 10, the patient would be scheduled for a follow-up visit in 3 to 5 days. If FPG was still above the threshold at follow-up, a visit was scheduled in order to increase the insulin dose as clinically indicated. Patients who further lacked glycemic control despite up-titration, or whose modified insulin dose exceeded baseline, were discontinued from blinded treatment and entered into follow-up.
All patients were on insulin-sensitizer therapy for at least 6 weeks prior to enrollment and insulin-based therapy for at least 12 weeks prior to enrollment. The study protocol defined insulin-sensitizer therapy as metformin (stable dose ≧1000 mg) and/or pioglitazone (stable dose ≧30 mg) or rosiglitazone (stable dose 4 mg). Insulin-based therapy was defined as subcutaneous insulin for at least 12 weeks prior to enrollment, with 2 minimum insulin daily dose equivalent to 50 units (median 85 to 93 units across all study arms) of U100 insulin per day. The insulin regimen must have been stable for at least 6 weeks. In addition to 10 mg dapagliflozin or 20 mg dapagliflozin daily or placebo, 74.6% of patients received metformin (≧1000 mg daily) plus insulin; 16.9% of patients received metformin (≧1000 mg daily) plus pioglitazone (≧30 mg daily) or rosiglitazone (4 mg daily) plus insulin and 8.5% of patients received pioglitazone (≧30 mg daily) or rosiglitazone (4 mg daily) plus insulin.
Patients in Cohort 1 were evaluated for safety only. Patients in Cohort 2 were evaluated for safety and efficacy. The primary efficacy measure was change from baseline in HbAlc, at week 12, last observation carried forward (LOCF). If no week 12 assessment was available, the last observation prior to week 12 was used. Secondary efficacy measures included changes from baseline at week 12 (LOCF) in FPG and insulin dose, the proportion of patients achieving a decrease in HbAlc>0.5% from baseline at week 12 (LOCF), and the proportion of patients achieving HbAlc<7% at week 12 (LOCF). Tertiary endpoints included changes from baseline in total body weight and in postprandial glucose (PPG) measured by an oral glucose tolerance test (OGTT).
Patients in Cohort 2 were evaluated for safety and efficacy. The primary efficacy measure was change from baseline in HbAlc at week 12, last observation carried forward (LOCF). The analysis was done excluding data after up-titration of insulin. If no week 12 assessment was available, the last observation prior to week 12 was used.
For Cohort 2, the sample size target of 22 patients per treatment group was chosen to allow for the calculation of 95% confidence intervals for the primary endpoint with a half-width of 0.42% for each treatment group. This assumed a 1% standard deviation for the primary endpoint in each of the dapagliflozin and placebo arms. With the same assumption, the half-width of a 95% confidence interval for the difference between any two treatment mean changes was estimated to be 0.59%. The primary efficacy data set consisted of all randomized patients who took at least one dose of double-blind study medication during the treatment phase. The analyses of the efficacy variables (except change from baseline in insulin dose) were done excluding data after up-titration of insulin. The analyses for changes from baseline in HbAlc, FPG, insulin dose, and total body weight at week 12 (LOCF) were performed using an analysis of covariance (ANCOVA) model with treatment group as an effect and baseline value as a covariate. Point estimates and 95% confidence intervals were calculated for mean changes within each treatment group and for differences in mean changes between the dapagliflozin and placebo groups.

[4] = Dapagliflozin 10 mg + insulin + OAD, excludes data after insulin up-titration
[5] = Dapagliflozin 10 mg + insulin + OAD, week 12 LOCF

CCOc1ccc(Cc2cc([C@@H]3O[C@H](CO)[C@@H](O)[C@H](O)[C@H]3O)ccc2Cl)cc1 [Dapagliflozin, (2S,3R,4R,5S,6R)-2-(4-chloro-3-(4-ethoxybenzyl)phenyl)-6-(hydroxymethyl)tetrahydro-2H-pyran-3,4,5-triol]
Adverse events, % of patients ([1]; 10 mg dapagliflozin arm): 75.0%
Patients with genital tract infections ([1]; 10 mg dapagliflozin group): none
Events of pre-renal azotemia ([1]; 10 mg dapagliflozin, patient on enalapril, carvedilol and furosemide, discontinued after eleven days, resolved with oral rehydration): One
Events of pollakiuria, patients ([1]; 10 mg dapagliflozin): two
Adverse events, % of patients ([1]; 20 mg dapagliflozin arm): 66.7%
Patients who reported episodes of hypoglycemia ([1]; 20 mg dapagliflozin group (n = 24)): six
Patients with genital tract infections ([1]; 20 mg dapagliflozin group): five
Events of pollakiuria, patients ([1]; 20 mg dapagliflozin): three
Patients who reported polyuria ([1]; dapagliflozin 10 mg arm): One
Patients with adverse events that led to discontinuation ([1]; dapagliflozin 10 mg arm): One
Patients who reported episodes of hypoglycemia ([1]; dapagliflozin 10 mg group (n = 24)): seven
Cases of microalbuminuria (resulted in discontinuation from the study) ([1]; dapagliflozin 20 mg arm): One
Patients who reported polyuria ([1]; dapagliflozin 20 mg arm): One
Patients with adverse events that led to discontinuation ([1]; dapagliflozin 20 mg arm): One
Patients who experienced a serious adverse event ([1]; dapagliflozin 20 mg group): one
Patients who reported a urinary tract infection ([1]; dapagliflozin 20 mg group): One
Total hypoglycemic events versus placebo, in words ([1]; major/minor episodes were balanced across all groups): more frequently reported with dapagliflozin treatment than with placebo
Deaths, in words ([1]; whole study): no deaths
24-hour urinary glucose, increase ([2]; 10 mg dapagliflozin): ~85 grams per day
Standing diastolic blood pressure, mean change ([2]; 10 mg dapagliflozin): −1.2 mm Hg
Standing systolic blood pressure, mean change ([2]; 10 mg dapagliflozin): −7.2 mm Hg
Supine diastolic blood pressure, mean change ([2]; 20 mg dapagliflozin): −5.8 mm Hg
Supine systolic blood pressure, mean change ([2]; 20 mg dapagliflozin): −5.5 mm Hg
24-hour urinary glucose, increase ([2]; 20 mg dapagliflozin): ~85 grams per day
Standing diastolic blood pressure, mean change ([2]; 20 mg dapagliflozin): −3.9 mm Hg
Standing systolic blood pressure, mean change ([2]; 20 mg dapagliflozin): −6.1 mm Hg
Serum uric acid, median change from baseline ([2]; dapagliflozin 10 mg): -0.30 mg/dL
Glomerular filtration rate, change compared to baseline ([2]; dapagliflozin 10 mg): −0.84 mL/min/1.73 m^2
Mean 24-hour urine output on treatment ([2]; dapagliflozin 10 mg, increased from 1921.0 mL at baseline): 2285.8 mL
Serum hematocrit, median increase from baseline ([2]; dapagliflozin 10 mg): 2.5%
Urinary glucose excretion, mean change from baseline ([2]; dapagliflozin 10 mg): 83.5 g/24 h
Serum uric acid, median change from baseline ([2]; dapagliflozin 20 mg): -0.30 mg/dL
Glomerular filtration rate, change compared to baseline ([2]; dapagliflozin 20 mg): 1.45 mL/min/1.73 m^2
Mean 24-hour urine output on treatment ([2]; dapagliflozin 20 mg, increased from 1808.8 mL at baseline): 2253.1 mL
Serum hematocrit, median increase from baseline ([2]; dapagliflozin 20 mg): 3.05%
Urinary glucose excretion, mean change from baseline ([2]; dapagliflozin 20 mg): 85.2 g/24 h
Reductions in HbAlc and improvements over placebo in FPG and PPG, dose relation, in words ([3]; 10 and 20 mg dapagliflozin): dose-dependent
Change from baseline in total daily insulin dose, in words ([3]; Cohort 2, week 12): no appreciable change
Fasting plasma glucose, mean (SD), End of Double-blind (Week 12 LOCF) [3, 4]: 160.5 (38.7) mg/dL
Weight, mean (SD), End of Double-blind (Week 12 LOCF) [3, 4]: 98.2 (9.4) kg
Total daily insulin dose, mean (SD), End of Double-blind (Week 12 LOCF) ([3]; Dapagliflozin 10 mg + insulin + OAD, includes data after insulin up-titration, U = units of U100 insulin): 51.3 (20.1) U
Postprandial glucose, mean (SD), End of Double-blind (Week 12 LOCF) ([3]; Dapagliflozin 10 mg + insulin + OAD, measured at 120 minutes by OGTT, excludes data after insulin up-titration): 286.0 (55.1) mg/dL
Fasting plasma glucose change from baseline, difference vs placebo + insulin + OAD, mean (95% CI) [3, 5]: −15.4 (−38.4 to 7.5) mg/dL
HbA1c change from baseline, difference vs placebo + insulin + OAD, mean (95% CI) [3, 5]: −0.70 (−1.08 to −0.32) %
